The results in this text go back to the supplement of paper PMC8967900.

Structures are written as SMILES.
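Note: ALL cell lines in 384-well plates, five doses spanning 10,000-fold, each plate scaled between vehicle and 100 µmol/L benzalkonium chloride controls, sDSS an adapted area-under-curve metric.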

The first test deals with 697. The test is described as follows: selective drug sensitivity score (sDSS, relative to normal bone marrow) (sDSS (score)); higher = more potent and effective on the cell line relative to normal bone marrow cells. As to conditions: 72 h.
Turning to `CNC(=O)c1ccc(C)c(-n2c(C)cc(OCc3ccc(F)cc3F)c(Br)c2=O)c1` (top concentration 1000 nM), the “selective drug sensitivity score” value worked out at 2.
Regarding `CONC(=O)c1ccccc1Nc1cc(Nc2cc(C)nn2C(C)C)ncc1Cl` (top concentration 1000 nM), the “selective drug sensitivity score” value was -0.94.
As for `CCOc1ccn(-c2ccc(F)cc2)c(=O)c1C(=O)Nc1ccc(Oc2ccnc(N)c2Cl)c(F)c1` (top concentration 2500 nM), the “selective drug sensitivity score” value came out at 0.4.
Same read-out and setting: under `CC[C@@H]1[C@H](F)C(=O)N[C@@H]1COc1nccc2cc(C(N)=O)c(OC)cc12` (top concentration 10000 nM) stands 1.88.
The same measure, in the same setting: under `C[C@H]1C[C@@H](n2c(Nc3ccc(OC(F)(F)F)cc3)nc3cc(CCC(=O)O)ccc32)CC(C)(C)C1` (top concentration 10000 nM) stands -0.14; under `O=C(NCc1ccncc1)C12CC3CC(C1)CC(c1ccc(Cl)cc1)(C3)C2` (top concentration 50000 nM), 3.78.
As to `O=C(O)c1ccc(CN2CCC(CN[C@@H]3C[C@H]3c3ccccc3)CC2)cc1` (top concentration 100000 nM), the “selective drug sensitivity score” value is -0.42.
With `COc1cc(N2CCN(C)CC2)ccc1Nc1nccc(-c2cn(C)c3cnccc23)n1` [AZ191] (top concentration 10000 nM), the “selective drug sensitivity score” value is 1.08.
On to `Cc1cc(Nc2nc(N[C@@H](C)c3ncc(F)cn3)ncc2Cl)[nH]n1` [AZD1480] (top concentration 1000 nM), for which the “selective drug sensitivity score” value was -3.78.
Regarding `COc1cc(CCc2cc(NC(=O)c3ccc(N4CC(C)NC(C)C4)cc3)n[nH]2)cc(OC)c1` (stereo not given) [AZD4547] (top concentration 1000 nM), the “selective drug sensitivity score” value is -0.04.
On the same count and under the same terms, under `CN(C)C(=O)c1ccc(S(=O)(=O)c2ccc(NC(=O)[C@@](C)(O)C(F)(F)F)c(Cl)c2)cc1` [AZD7545] (top concentration 10000 nM) stands 4.3.
The same measure, in the same setting: under `COc1cc(C)c(/C=C/C(C)=C/C=C/C(C)=C/C(=O)O)c(C)c1C` [Acitretin] (top concentration 10000 nM) stands 0.6; under `CCC1(c2ccc(N)cc2)CCC(=O)NC1=O` (stereo not given) [Aminoglutethimide] (top concentration 10000 nM), 0; under `CNC(=O)c1ccc(N2C(=S)N(c3cnc(C#N)c(C(F)(F)F)c3)C(=O)C23CCC3)cc1F` [Apalutamide] (top concentration 10000 nM), 0.
Take `N#CC1(c2ccc(NC(=O)c3cccnc3NCc3ccncc3)cc2)CCCC1` [Apatinib] (top concentration 10000 nM): the “selective drug sensitivity score” value was determined as 0.
As for `Cc1nc2cccc(N)c2c(=O)n1C1CCC(=O)NC1=O` (stereo not given) [Avadomide (CC122)] (top concentration 10000 nM), the “selective drug sensitivity score” value was 2.7.
In the case of `Nc1nc(Nc2ccc3c(c2)CC[C@@H](N2CCCC2)CC3)nn1-c1cc2c(nn1)-c1ccccc1CCC2` [BGB324] (top concentration 10000 nM), the “selective drug sensitivity score” value is 3.52.
The same measure, in the same setting: as for `CC1(C)C(C(=O)Nc2ccc(S(=O)(=O)c3ccc(NC(=O)C4C(C)(C)C4(C)C)cc3)cc2)C1(C)C` [BRD7116] (top concentration 10000 nM), the figure is 0.56.

A further test has as its system ALL-SIL. The test is described as above. As to conditions: 72 h.
As for `CNC(=O)c1ccc(C)c(-n2c(C)cc(OCc3ccc(F)cc3F)c(Br)c2=O)c1` (top concentration 1000 nM), the “selective drug sensitivity score” value worked out at 0.
As for `CONC(=O)c1ccccc1Nc1cc(Nc2cc(C)nn2C(C)C)ncc1Cl` (top concentration 1000 nM), the “selective drug sensitivity score” value was 0.86.
Consider `CCOc1ccn(-c2ccc(F)cc2)c(=O)c1C(=O)Nc1ccc(Oc2ccnc(N)c2Cl)c(F)c1` (top concentration 2500 nM), for which the “selective drug sensitivity score” value was determined as 8.
On to `CC[C@@H]1[C@H](F)C(=O)N[C@@H]1COc1nccc2cc(C(N)=O)c(OC)cc12` (top concentration 10000 nM), for which the “selective drug sensitivity score” value was -1.32.
Same read-out and setting: as for `C[C@H]1C[C@@H](n2c(Nc3ccc(OC(F)(F)F)cc3)nc3cc(CCC(=O)O)ccc32)CC(C)(C)C1` (top concentration 10000 nM), the figure is 1.06; as for `O=C(NCc1ccncc1)C12CC3CC(C1)CC(c1ccc(Cl)cc1)(C3)C2` (top concentration 50000 nM), 2.08; as for `O=C(O)c1ccc(CN2CCC(CN[C@@H]3C[C@H]3c3ccccc3)CC2)cc1` (top concentration 100000 nM), -0.62.
Consider `COc1cc(N2CCN(C)CC2)ccc1Nc1nccc(-c2cn(C)c3cnccc23)n1` [AZ191] (top concentration 10000 nM), for which the “selective drug sensitivity score” value is -1.52.
Turning to `Cc1cc(Nc2nc(N[C@@H](C)c3ncc(F)cn3)ncc2Cl)[nH]n1` [AZD1480] (top concentration 1000 nM), the “selective drug sensitivity score” value was -0.28.
The same measure, in the same setting: under `COc1cc(CCc2cc(NC(=O)c3ccc(N4CC(C)NC(C)C4)cc3)n[nH]2)cc(OC)c1` (stereo not given) [AZD4547] (top concentration 1000 nM) stands 0.56.
On the same count and under the same terms, as for `CN(C)C(=O)c1ccc(S(=O)(=O)c2ccc(NC(=O)[C@@](C)(O)C(F)(F)F)c(Cl)c2)cc1` [AZD7545] (top concentration 10000 nM), the figure is 3.4.
Take `COc1cc(C)c(/C=C/C(C)=C/C=C/C(C)=C/C(=O)O)c(C)c1C` [Acitretin] (top concentration 10000 nM): the “selective drug sensitivity score” value is -1.6.
Consider `CCC1(c2ccc(N)cc2)CCC(=O)NC1=O` (stereo not given) [Aminoglutethimide] (top concentration 10000 nM), for which the “selective drug sensitivity score” value turned out to be 0.
Same read-out and setting: under `CNC(=O)c1ccc(N2C(=S)N(c3cnc(C#N)c(C(F)(F)F)c3)C(=O)C23CCC3)cc1F` [Apalutamide] (top concentration 10000 nM) stands 0; under `N#CC1(c2ccc(NC(=O)c3cccnc3NCc3ccncc3)cc2)CCCC1` [Apatinib] (top concentration 10000 nM), 0.
Take `Cc1nc2cccc(N)c2c(=O)n1C1CCC(=O)NC1=O` (stereo not given) [Avadomide (CC122)] (top concentration 10000 nM): the “selective drug sensitivity score” value was 0.
In the case of `Nc1nc(Nc2ccc3c(c2)CC[C@@H](N2CCCC2)CC3)nn1-c1cc2c(nn1)-c1ccccc1CCC2` [BGB324] (top concentration 10000 nM), the “selective drug sensitivity score” value worked out at 3.12.
Turning to `CC1(C)C(C(=O)Nc2ccc(S(=O)(=O)c3ccc(NC(=O)C4C(C)(C)C4(C)C)cc3)cc2)C1(C)C` [BRD7116] (top concentration 10000 nM), the “selective drug sensitivity score” value was -0.24.

The subject of another test is COG-LL-317. The test is described as above. The conditions noted are these: 72 h.
On to `CNC(=O)c1ccc(C)c(-n2c(C)cc(OCc3ccc(F)cc3F)c(Br)c2=O)c1` (top concentration 1000 nM), for which the “selective drug sensitivity score” value is 0.
For `CONC(=O)c1ccccc1Nc1cc(Nc2cc(C)nn2C(C)C)ncc1Cl` (top concentration 1000 nM), the “selective drug sensitivity score” value was -0.94.
As for `CCOc1ccn(-c2ccc(F)cc2)c(=O)c1C(=O)Nc1ccc(Oc2ccnc(N)c2Cl)c(F)c1` (top concentration 2500 nM), the “selective drug sensitivity score” value came out at 0.
Consider `CC[C@@H]1[C@H](F)C(=O)N[C@@H]1COc1nccc2cc(C(N)=O)c(OC)cc12` (top concentration 10000 nM), for which the “selective drug sensitivity score” value was determined as 1.28.
`C[C@H]1C[C@@H](n2c(Nc3ccc(OC(F)(F)F)cc3)nc3cc(CCC(=O)O)ccc32)CC(C)(C)C1` (top concentration 10000 nM): the “selective drug sensitivity score” value is 2.56.
As to `O=C(NCc1ccncc1)C12CC3CC(C1)CC(c1ccc(Cl)cc1)(C3)C2` (top concentration 50000 nM), the “selective drug sensitivity score” value is -0.12.
Consider `O=C(O)c1ccc(CN2CCC(CN[C@@H]3C[C@H]3c3ccccc3)CC2)cc1` (top concentration 100000 nM), for which the “selective drug sensitivity score” value came to 6.48.
Take `COc1cc(N2CCN(C)CC2)ccc1Nc1nccc(-c2cn(C)c3cnccc23)n1` [AZ191] (top concentration 10000 nM): the “selective drug sensitivity score” value was determined as 0.58.
For the molecule `Cc1cc(Nc2nc(N[C@@H](C)c3ncc(F)cn3)ncc2Cl)[nH]n1` [AZD1480] (top concentration 1000 nM), the “selective drug sensitivity score” value is -2.78.
